Data published in patent US6958231B2, “Variants of Erwinia-type creatinase” (Roche Diagnostics Operations, Inc., priority 2001, dated 2005).
Numbering of substitutions follows the chain as printed.

How the values were obtained:
[1] = tested on: creatinase from Pseudomonas putida; details: in words; cited from earlier work
[2] = biological target: T1, Erwinia sp. (DSM 97-934) creatinase variant CTsd7, F59W, N130D, M203V, I278T, F395L, SEQ ID NO: 22 (Shinella sumterensis, UniProt A0AA50CTE0, F395L/F59W/I278T/M203V/N130D); assay: Km determination of creatinase variant with creatine (coupled enzymatic assay); format: biochemical; details: in words, CTsd7 vs wild type Erwinia creatinase
T1 construct: variant CTsd7
T1 sequence (A0AA50CTE0 1-404 F59W/N130D/M203V/I278T/F395L): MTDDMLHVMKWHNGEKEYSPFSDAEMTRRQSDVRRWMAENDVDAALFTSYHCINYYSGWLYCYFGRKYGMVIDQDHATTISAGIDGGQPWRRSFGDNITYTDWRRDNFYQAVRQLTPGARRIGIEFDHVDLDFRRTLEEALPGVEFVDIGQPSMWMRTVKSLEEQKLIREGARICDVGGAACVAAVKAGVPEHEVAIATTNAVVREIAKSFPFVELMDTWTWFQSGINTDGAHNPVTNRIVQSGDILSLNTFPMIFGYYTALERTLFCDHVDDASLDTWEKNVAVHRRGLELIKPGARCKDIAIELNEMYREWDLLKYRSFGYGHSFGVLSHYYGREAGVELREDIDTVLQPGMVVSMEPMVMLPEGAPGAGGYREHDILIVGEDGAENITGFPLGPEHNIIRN
Method: (§1) The activity assay for creatinase and its variants was performed by using creatine as substrate and a coupled enzymatic reaction according to Guder, W. G., et al., J Clin Chem Clin Biochem 24 (1986) 889-902.
(§2) The reaction mixture was set up by combining the following reagents:
(§3) The assay for creatinase was carried out at 25° C. and at the wavelength of 546 nm for 10 min. ΔE was calculated from the measurement points of 6 to 10 min.
(§4) For KM determination, creatinase activity was determined according to the assay procedure described in Example 3 using six different concentrations of creatine substrate: 90 mM, 45 mM, 22.5 mM, 11.3 mM, 5.6 miM and 2.8 mM.

[3] = biological target: T2, Erwinia sp. (DSM 97-934) creatinase variant CTsd2, N130D, M203V, I278T, F395L, SEQ ID NO: 20 (Shinella sumterensis, UniProt A0AA50CTE0, F395L/I278T/M203V/N130D); assay: as above; format: biochemical; details: in words, CTsd2 vs wild type Erwinia creatinase
T2 construct: variant CTsd2
T2 sequence (A0AA50CTE0 1-404 N130D/M203V/I278T/F395L): T1 sequence (A0AA50CTE0 1-404 F59W/N130D/M203V/I278T/F395L) with W59F
Method: as §1, §2, §3, §4

## CN(CC(=O)O)C(=N)N [creatine]
[1]
  Km value: rather high
[2]
  Km value compared to wild type: much lower
[3]
  Km value compared to wild type: much lower
